Assays:
[1] = molecular target: STING protein (Homo sapiens, UniProt Q86WV6, H232R); assay: STING activation reporter assay (ISRE luciferase, HEK293T) with cGAMP-LNPs; conditions: read-out: EC50 STING activation; 2′,3′-cGAMP transfected with cGAMP-LNPs
Procedure: Cells were transferred to poly-D-lysine (Sigma-Aldrich)-coated 96-well plates (Greiner Bio-One) at a density of 2.5×10^4 in DMEM medium containing glucose (containing L-glutamine; Biowest) supplemented with 10% FBS (Capricorn Scientific) and 1% penicillin-streptomycin (Biowest). After incubation at 37° C. in 5% CO2 overnight, serially diluted compounds were added to the cells for 7 hours. In parallel, HEK293T cells were incubated with the test compounds alone for 30 minutes, washed twice with fresh medium, and then cultured for an additional 6.5 hours. Finally, 50 μl of cell culture medium was mixed with 30 μl of Bright-Glo Luciferase Assay System reagent (Promega) in white 96-well plates and luminescence was read in a Spark® spectrophotometer (TECAN, Grodig).

[2] = test system: U2OS; assay: Cellular toxicity of mRNA-LNP, CellTiterGlo 2.0 viability; format: cell-based, human; conditions: total lipid 100 μM (context of the sentence)
Procedure: A human cell line derived from embryonic kidney cells (HEK293), the same line expressing SV40 large T antigen (HEK293T), human osteosarcoma-derived cell line (U2OS), and human hepatocyte carcinoma cell line (HepG2) were cultured in 96-well plates (5×10^4 cells in 100 μl of culture medium per well) in Dulbecco's modified medium (DMEM) or in IMDM medium (Iscove's Modified Dulbecco's medium) supplemented with 10% foetal bovine serum (FBS) at 37° C. in 5% CO2. Cells were transfected with 2 μl of mRNA-LNPs generated in triplicates in Example 25 (the final total concentration of all lipid components in the well was 20 μM) or 10 μl of mRNA-LNPs (the final total concentration of all lipid components in the well was 100 μM) and subsequently incubated for 24 hours. The cytotoxicity of LNPs was analysed in a CellTiterGlo 2.0 cell viability assay (Promega, USA). Cell viability was normalized to non-transfected cells (control).

Chain of STING protein (Q86WV6 whole entry H232R): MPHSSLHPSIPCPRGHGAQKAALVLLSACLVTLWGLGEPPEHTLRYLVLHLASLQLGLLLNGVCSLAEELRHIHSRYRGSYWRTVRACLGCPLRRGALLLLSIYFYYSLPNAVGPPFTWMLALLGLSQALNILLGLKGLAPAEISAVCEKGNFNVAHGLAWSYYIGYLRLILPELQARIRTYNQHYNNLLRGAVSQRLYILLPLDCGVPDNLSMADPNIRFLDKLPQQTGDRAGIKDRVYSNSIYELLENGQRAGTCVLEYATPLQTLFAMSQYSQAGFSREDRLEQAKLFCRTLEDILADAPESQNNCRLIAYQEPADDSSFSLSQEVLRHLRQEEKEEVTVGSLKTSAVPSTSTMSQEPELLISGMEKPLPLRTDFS

CCCCCCCCCCCCN(CCCCCCCCCCCC)CCCCCNC(=O)C12CC3CC(C(=O)NCCCCCN(CCCCCCCCCCCC)CCCCCCCCCCCC)(C1)CC(C(=O)NCCCCCN(CCCCCCCCCCCC)CCCCCCCCCCCC)(C3)C2 [4d]
EC50 [1]: 2 ± 0.36 nM | toxicity of particles formed by the lipidoid (in words) [2]: non-toxic
